Data published in patent US10981932B2, “Macrocyclic indole derivatives” (Bayer Aktiengesellschaft, priority 2016, dated 2021).
Like-named read-outs stand apart in the source and are kept apart here.

Columns and labels:
MCL-1 = MCL-1 (Homo sapiens, UniProt Q07820); experiment: Protein-protein interaction assay MCL-1/Noxa BH3 peptide (MCL-1 assay), TR-FRET; assay type: binding; details: MBP-MCL-1 / Noxa BH3-derived peptide, median
Summary of the method: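 IC50 came from a 4-parameter fit of the normalized 665/620 nm TR-FRET ratio (anti-MBP Eu-cryptate/streptavidin-XL665). Compounds (0.1 nM–20 μM, duplicates) were preincubated 10 min at 22 °C with 1 nM MBP-MCL-1 in pH 7 Tris/NaCl/KF buffer, then read after 1 h at 22 °C plus overnight at 4 °C.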

SUDHL5 [1] = experiment: Induction of caspase-3/7 activity (Caspase-Glo 3/7), SUDHL5; assay type: cell-based; details: caspase-3/7 induction, SUDHL5 cells, 3 h treatment, median
Summary of the method: (§1)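 DLBCL lines SUDHL5 and SUDHL10 treated with compounds for 3 h at 37 °C; caspase-3/7 activity read by Caspase-Glo 3/7 luminescence. Medium-only background subtracted; EC50 fitted with bottom fixed at 1 and top fixed at the reference compound's maximal induction.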

SUDHL10 [2] = experiment: Induction of caspase-3/7 activity (Caspase-Glo 3/7), SUDHL10; assay type: cell-based; details: caspase-3/7 induction, SUDHL10 cells, 3 h treatment, median
Summary of the method: as §1

SUDHL5 [3] = experiment: Anti-proliferative effect (CellTiter-Glo, 72 h), SUDHL5; assay type: cell-based; details: SUDHL5 cells, antiproliferation, 72 h incubation, median, read-out: Antiproli SUDHL5 [M] (median)
Summary of the method: (§2)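 72 h compound treatment, 37 °C humidified; CellTiter-Glo added, 10 min incubation, luminescence read; day 0 plate read in parallel for baseline.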

SUDHL10 [4] = experiment: Anti-proliferative effect (CellTiter-Glo, 72 h), SUDHL10; assay type: cell-based; details: SUDHL10 cells, antiproliferation, 72 h incubation, median, read-out: Antiproli SUDHL10 [M] (median)
Summary of the method: as §2

OPM2 = experiment: Anti-proliferative effect (CellTiter-Glo, 72 h), OPM2; assay type: cell-based; details: OPM2 cells, median, read-out: IC50 antiproliferation assay OPM2 [M] (median)
Summary of the method: as §2

A2780 = experiment: Anti-proliferative effect (CellTiter-Glo, 72 h), A2780; assay type: cell-based; details: A2780 cells, median, read-out: IC50 antiproliferation assay A2780 [M] (median)
Summary of the method: as §2

SUDHL5 [5] = experiment: Induction of cytotoxicity (CellTiter-Glo, 5 h), SUDHL5
SUDHL10 [6] = experiment: Induction of cytotoxicity (CellTiter-Glo, 5 h), SUDHL10
[7] = Homo sapiens, SU-DHL-5, 5 h, read-out: Cytotox SUDHL5 [M] (median), SUDHL5 cells, cytotoxicity induction, CellTiter-Glo, 5 h incubation, median
[8] = Homo sapiens, SU-DHL10, 5 h, read-out: Cytotox SUDHL10 [M] (median), SUDHL10 cells, cytotoxicity induction, CellTiter-Glo, 5 h incubation, median

Sequence of MCL-1 (Q07820 whole entry): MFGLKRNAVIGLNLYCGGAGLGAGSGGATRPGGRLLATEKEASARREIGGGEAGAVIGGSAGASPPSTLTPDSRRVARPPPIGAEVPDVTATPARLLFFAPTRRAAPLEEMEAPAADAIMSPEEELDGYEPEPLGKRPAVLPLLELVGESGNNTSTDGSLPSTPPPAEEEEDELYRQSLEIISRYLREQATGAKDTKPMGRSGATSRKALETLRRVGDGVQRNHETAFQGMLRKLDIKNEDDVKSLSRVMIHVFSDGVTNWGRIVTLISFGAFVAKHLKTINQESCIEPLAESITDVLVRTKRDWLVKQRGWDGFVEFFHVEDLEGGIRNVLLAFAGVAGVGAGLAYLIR

Structure (SMILES) | IC50 (MCL-1) [µM] | EC50 (SUDHL5 [1]; Homo sapiens, SU-DHL-5, 3 h) [µM] | EC50 (SUDHL10 [2]; Homo sapiens, SU-DHL10, 3 h) [µM] | IC50 (SUDHL5 [3]; Homo sapiens, SU-DHL-5, 72 h) [M] | IC50 (SUDHL10 [4]; Homo sapiens, SU-DHL10, 72 h) [M] | IC50 (OPM2; Homo sapiens, OPM-2, 72 h) [M] | IC50 (A2780; Homo sapiens, A2780, 72 h) [M] | IC50 (SUDHL5 [5]; [7]) [M] | IC50 (SUDHL10 [6]; [8]) [M] | IC50 (OPM2) [M] | IC50 (A2780) [M] | IC50 (SUDHL10 [6]; read-out: Cytotox SUDHL10 [M] (median), SUDHL10 cells, cytotoxicity induction, CellTiter-Glo, 5 h incubation, median) | EC50 (SUDHL5 [1]) [µM] | EC50 (SUDHL10 [2]) [µM] | IC50 (SUDHL5 [3]) [M] | IC50 (SUDHL10 [4]) [M] | IC50 (SUDHL5 [5]; read-out: Cytotox SUDHL5 [M] (median), SUDHL5 cells, cytotoxicity induction, CellTiter-Glo, 5 h incubation, median)
CCN(CC)S(=O)(=O)N1CCN(c2ccc(OCc3nn(C)c4c3-c3cccc5c(CCCOc6cccc7ccccc67)c(C(=O)O)n(c35)CCCCOC4)cc2)CC1 (racemic) [Example 1-3, (rac)-3-({4-[4-(diethylsulfamoyl)piperazin-1-yl]phenoxy}methyl)-1-methyl-7-[3-(naphthalen-1-yloxy)propyl]-1,10,11,12,13,15-hexahydropyrazolo[4′,3′:9,10][1,6]oxazacycloundecino[8,7,6-hi]indole-8-carboxylic Acid] | 0.00378 | 2 | 2.36 | 1.27e-06 | 1.9e-06 | 2.11e-06 | 4.86e-06 | 2.68e-06 | 2.64e-06 | – | – | – | – | – | – | – | –
CN1CCN(c2ccc(OCc3nn(C)c4c3-c3cccc5c(CCCOc6cccc7ccccc67)c(C(=O)O)n(c35)CCCCOC4)cc2)CC1 (racemic) [Example 1-7, (rac)-1-methyl-3-{[4-(4-methylpiperazin-1-yl)phenoxy]methyl}-7-[3-(naphthalen-1-yloxy)propyl]-1,10,11,12,13,15-hexahydropyrazolo[4′,3′:9,10][1,6]oxazacycloundecino[8,7,6-hi]indole-8-carboxylic Acid] | 0.0158 | > 33 | > 33 | 1.63e-06 | > 3.3e-05 | > 3.3e-05 | > 3.3e-05 | > 3.3e-05 | 8.17e-06 | – | – | – | – | – | – | – | –
CN(C)S(=O)(=O)N1CCN(c2ccc(OCc3nn(C)c4c3-c3cccc5c(CCCOc6cccc7ccccc67)c(C(=O)O)n(c35)CC=CCOC4)cc2)CC1 (racemic) [Example 1-17, (rac)-(E/Z)-3-({4-([4-(dimethylsulfamoyl)piperazin-1-yl]phenoxy}methyl)-1-methyl-7-[3-(naphthalen-1-yloxy)propyl]-1,10,13,15-tetrahydropyrazolo[4′,3′:9,10][1,6]oxazacycloundecino[8,7,6-hi]indole-8-carboxylic Acid] | 0.0127 | 3.73 | 4.39 | 2.99e-06 | 4.25e-06 | 4.37e-06 | 8.94e-06 | 4.36e-06 | 6.88e-06 | – | – | – | – | – | – | – | –
CN(C)S(=O)(=O)N1CCN(c2ccc(OCc3nn(C)c4c3-c3cccc5c(CCCOc6cccc7ccccc67)c(C(=O)O)n(c35)CCCCOC4)cc2)CC1 (racemic) [Example 1-18, (rac)-3-({4-[4-(dimethylsulfamoyl)piperazin-1-yl]phenoxy}methyl)-1-methyl-7-[3-(naphthalen-1-yloxy)propyl]-1,10,11,12,13,15-hexahydropyrazolo[4′,3′:9,10][1,6]oxazacycloundecino[8,7,6-hi]indole-8-carboxylic Acid] | – | 1.22 | 1.94 | 9.33e-07 | 1.33e-06 | 1.57e-06 | 8.79e-06 | 1.75e-06 | 2.29e-06 | – | – | – | – | – | – | – | –
Cn1nc(COc2ccc(N3CCN(C(=O)C4CC4)CC3)cc2)c2c1COCCCCn1c(C(=O)O)c(CCCOc3cccc4ccccc34)c3cccc-2c31 (racemic) [Example 1-21, (rac)-3-({4-[4-(cyclopropylcarbonyl)piperazin-1-yl]phenoxy}methyl)-1-methyl-7-[3-(naphthalen-1-yloxy)propyl]-10,11,12,13,15-hexahydropyrazolo[4′,3′:9,10][1,6]oxazacycloundecino[8,7,6-hi]indole-8-carboxylic Acid] | 0.00106 | 2.34 | 2.82 | 2.41e-06 | 2.49e-06 | 3.61e-06 | 1.29e-05 | 2.31e-06 | 3.26e-06 | – | – | – | – | – | – | – | –
CC(=O)N1CCN(c2ccc(OCc3nn(C)c4c3-c3cccc5c(CCCOc6cccc7ccccc67)c(C(=O)O)n(c35)CCCCOC4)cc2)CC1 (racemic) [Example 1-24, (rac)-3-{[4-(4-acetylpiperazin-1-yl)phenoxy]methyl}-1-methyl-7-[3-(naphthalen-1-yloxy)propyl]-1,10,11,12,13,15-hexahydropyrazolo[4′,3′:9,10][1,6]oxazacycloundecino[8,7,6-hi]indole-8-carboxylic Acid] | 0.00231 | 4.28 | 6.61 | 4.7e-06 | 6.52e-06 | 2.97e-05 | > 3.3e-05 | 2.23e-06 | 4.33e-06 | – | – | – | – | – | – | – | –
COCC(=O)N1CCN(c2ccc(OCc3nn(C)c4c3-c3cccc5c(CCCOc6cccc7ccccc67)c(C(=O)O)n(c35)CCCCOC4)cc2)CC1 (racemic) [Example 1-27, (rac)-3-({4-[4-(methoxyacetyl)piperazin-1-yl]phenoxy}methyl)-1-methyl-7-[3-(naphthalen-1-yloxy)propyl]-1,10,11,12,13,15-hexahydropyrazolo[4′,3′:9,10][1,6]oxazacycloundecino[8,7,6-hi]indole-8-carboxylic Acid] | 0.00208 | 4.42 | 7.5 | 2.95e-06 | 6.3e-06 | 8.75e-06 | 2.23e-05 | 3.53e-06 | 8.44e-06 | – | – | – | – | – | – | – | –
Cc1nn(C)c2c1-c1cccc3c(CCCOc4cccc5ccccc45)c(C(=O)O)n(c13)CCCCOC2 (racemic) [Example 1-33, (rac)-1,3-dimethyl-7-[3-(naphthalen-1-yloxy)propyl]-1,10,11,12,13,15-hexahydropyrazolo[4′,3′:9,10][1,6]oxazacycloundecino[8,7,6-hi]indole-8-carboxylic Acid] | 0.009 | 5.78 | 13.7 | 9.78e-06 | 1.83e-05 | 2.23e-05 | > 3.3e-05 | 7.47e-06 | 2.19e-05 | – | – | – | – | – | – | – | –
Cc1nn(C)c2c1-c1cccc3c(CCCOc4cccc5c4CCCC5)c(C(=O)O)n(c13)CCCCOC2 (racemic) [Example 006, (rac)-1,3-dimethyl-7-[3-(5,6,7,8-tetrahydronaphthalen-1-yloxy)propyl]-1,10,11,12,13,15-hexahydropyrazolo[4′,3′:9,10][1,6]oxazacycloundecino[8,7,6-hi]indole-8-carboxylic Acid] | 0.00831 | 6.95 | – | 3.22e-06 | 4.99e-06 | 1.9e-05 | > 3.3e-05 | 7.28e-06 | 1.99e-05 | > 3.3e-05 | 2.49e-05 | > 3.3e-05 | – | – | – | – | –
CN1CCCn2c(C(=O)O)c(CCCOc3cccc4ccccc34)c3cccc(c32)-c2c(CN3CCOCC3)nn(C)c2C1 (single isomer, unassigned; enantiomer 2) [Example 1-44, (−)-7,9-dimethyl-11-(morpholin-4-ylmethyl)-1-[3-(naphthalen-1-yloxy)propyl]-4,5,6,7,8,9-hexahydropyrazolo[3′,4′:7,8][1,5]diazecino[9,10,1-hi]indole-2-carboxylic Acid (Enantiomer 2)] | 0.0177 | – | – | – | – | – | – | – | – | 1.13e-05 | 1.95e-05 | – | 12.4 | 9.76 | 6.96e-06 | 7.73e-06 | 1.26e-05
Cc1nn(C)c2c1-c1cccc3c(CCCOc4cccc5ccccc45)c(C(=O)O)n(c13)CCCCN2 [Example 003, (rac)-9,11-dimethyl-1-[3-(1-naphthyloxy)propyl]-4,5,6,7,8,9-hexahydropyrazolo[4′,3′:4,5][1,6]diazecino[3,2,1-hi]indole-2-carboxylic Acid] | 0.0433 | > 33 | 29.1 | > 3.3e-05 | 1.54e-05 | > 3.3e-05 | – | > 3.3e-05 | > 3.3e-05 | – | – | – | – | – | – | – | –
